According to US20160038532A1, “Treatment of Multiple Sclerosis With Combination of Laquinimod and Glatiramer Acetate” (TEVA PHARMACEUTICAL INDUSTRIES, LTD., priority 2011, published 2016):
Marks after values point to notes of the source that are not given here.

Experiments:
MOG-induced EAE [1] = test: MOG-induced EAE, repeat study (Example 2.3); type: in vivo, C57B1/6 mice; conditions: GA-blocking 12.5 mg/kg with inoculum day 0
Description: 120 female C57B1/6 mice 8-10 weeks old were used the study. Mice were allocated randomly into 8 groups according to Table 7 below.
24 mg MOG was diluted in 8 ml PBS (3 mg/ml, stock solution). Groups 1, 3, 5 and 7: 4 ml of stock solution was diluted 1:1 with PBS. […] This solution was mixed 1:1 with the stock solution of MOG.
The high dose LAQ (25 mg/10 ml/kg) solution (150 mg in 60 ml DDW) was prepared once weekly and stored in the amber glass at room temperature. The lower LAQ doses were prepared daily. For the dose of 5 mg/kg, 1.6 ml of stock solution were added to 6.4 ml DDW. For the dose 1 mg/kg, […] of the previous solution (intermediate dose) were added to 5.2 ml DDW. The compound was administered by gavage once daily during the hole experiment (30 days) at a volume of 0.2 ml/mouse.
The mice were observed daily from the 10th day post-EAE induction (first injection of MOG) and the EAE clinical signs were scored according to the grades described in the 2 above.

MOG-induced EAE [2] = test: MOG-induced EAE, laquinimod alone and with GA blocking (Example 2.1), clinical signs; type: in vivo, C57B1/6 mice; conditions: GA-blocking 12.5 mg/kg (250 μg/mouse) in inoculum day 0
[3] = Weight of EAE mice (Example 2.1); type: in vivo, C57B1/6 mice; conditions: GA-blocking alone
From the text: FIG. 1 is a graphical representation of the experimental results from Example 2.1.
The differences were statistically significant (by MANOVA). […] However, when the first signs appeared the mice started to lose weight. On days 16 and 24 the weight of control mice was statistically different from almost all the others (Table 4, FIG. 1B).

[4] = system: relapsing remitting (RR) EAE; test: Relapsing remitting EAE in Biozzi mice, combination study (Example 2.6); type: in vivo
Description: EAE is an animal model for multiple sclerosis. In the Biozzi AB/H EAE mice, a RR EAE can be induced. […] Re-injection of an encephalitogen can induce a chronic relapsing disease that enables measuring long-term effects on subsequent relapses rather than immediate effects.
The EAE induction was performed according to procedure “RR-EAE.Biozzi” The Biozzi mice were weighed and injected subcutaneously and re-injected one week later with encephalitogenic agent (MSCH emulsion). 0.3 mL of the encephalitogenic agent containing 1.0 mg of MSCH and 200.0 μg of MT was injected subcutaneously, at two sites in the right flank of each mouse (0.15 mL at each site). The second injection was done in a similar manner in the left flank, one week later.
On the day of first injection of encephalotigen, the Biozzi mice were randomly allocated to eight treatment groups as follows: Tables 16-17.
The 5.0 mg/mL laquinimod stock solution was diluted 1:5 to yield 1 mg/mL.
The mice in all the groups were administered daily by oral gavage a volume dose level of […] of the respective test formulations from the day the mice are allocated to the treatment groups (first injection of encephalitogen) for 59 consecutive days until the termination of the study.
The mice were examined and scored according to the following table, until the termination of the study (60 days after initiation of treatment).
The activity of the test articles for the first and second phase of RR EAE was calculated by comparing the incidence of disease, mortality, onset and duration of disease, group mean score and mean maximal score to the control group. Calculations were carried separately and together for the first and the second relapse.

multiple sclerosis (MS) = conditions: daily subcutaneous injections, 20 mg/injection; cited from earlier work
[5] = first and second attacks together, GA 12.5 mg/kg oral daily 59 d
[6] = first attack, GA 12.5 mg/kg oral daily
[7] = second attack, GA 12.5 mg/kg oral daily

L-glutamic acid polymer with L-alanine, L-lysine and L-tyrosine, acetate (salt) [GA]
% inhibition compared to Control (GMS) (MOG-induced EAE [1]): 78.9% | Group Mean Score (MOG-induced EAE [1]): 0.52*** | Incidence (MOG-induced EAE [1]): 5/15 | Mean Disease Duration (MOG-induced EAE [1]): 3.7*** days | Mean Maximal Score (MOG-induced EAE [1]): 0.97*** | Mean Onset (MOG-induced EAE [1]): 25.6*** days | % inhibition compared to Control (GMS) (MOG-induced EAE [2]): 48% | Group Mean Score (MOG-induced EAE [2]): 1.70** | Incidence (MOG-induced EAE [2]): 14/16 | Mean Disease Duration (MOG-induced EAE [2]): 10.9*** days | Mean Maximal Score (MOG-induced EAE [2]): 3.34** | Mean Onset (MOG-induced EAE [2]): 19.5* days | weight, day 5 after induction [3]: 17.9 | weight, day 10 after induction [3]: 19.3 | weight, day 16 after induction [3]: 19.9** | weight, day 24 after induction [3]: 18.0* | weight, day 30 after induction [3]: 18.2 | GMS % inhibition [4, 5]: 21.7% | GMS value [4, 5]: 1.8 | Incidence [4, 5]: 12/14 | Incidence % inhibition [4, 5]: 7.7% | MMS % inhibition [4, 5]: 0.0% | MMS value [4, 5]: 3.6 | Mean Duration [4, 5]: 23.8 ± 16.2 days | % Inhibition 1 (incidence) [4, 6]: 7.7% | IMS % Inhibition 3 [4, 6]: 15.6% | IMS value [4, 6]: 58.6 ± 70.5 | Incidence [4, 6]: 12/14 | MMS % Inhibition 2 [4, 6]: 2.8% | MMS value [4, 6]: 3.5 ± 1.6 | Mean Duration [4, 6]: 15.7 ± 14.0 days | % Inhibition 1 (incidence) [4, 7]: 31.2% | IMS % Inhibition 3 [4, 7]: 35.5% | IMS value [4, 7]: 30.5 ± 33.0 | Incidence [4, 7]: 6/12 | MMS % Inhibition 2 [4, 7]: 31.0% | MMS value [4, 7]: 2.0 ± 1.7 | Mean Duration [4, 7]: 9.4 ± 10.5 days | effect on relapse rates, progression of disability, new MRI lesions (multiple sclerosis (MS)): reduce relapse rates
